This passage reports IC50 and Ki results from ChEMBL document CHEMBL6114981, “Research progress of flavonoids targeting estrogen receptor in the treatment of breast cancer” (Bioorg Med Chem, 2025).

Assay [1] concerns MCF7. As to the kind of experiment: Antiproliferative activity against human MCF7 cells.
A further assay addresses T1, Aromatase (Homo sapiens, UniProt P11511).
T1 sequence (P11511 whole entry): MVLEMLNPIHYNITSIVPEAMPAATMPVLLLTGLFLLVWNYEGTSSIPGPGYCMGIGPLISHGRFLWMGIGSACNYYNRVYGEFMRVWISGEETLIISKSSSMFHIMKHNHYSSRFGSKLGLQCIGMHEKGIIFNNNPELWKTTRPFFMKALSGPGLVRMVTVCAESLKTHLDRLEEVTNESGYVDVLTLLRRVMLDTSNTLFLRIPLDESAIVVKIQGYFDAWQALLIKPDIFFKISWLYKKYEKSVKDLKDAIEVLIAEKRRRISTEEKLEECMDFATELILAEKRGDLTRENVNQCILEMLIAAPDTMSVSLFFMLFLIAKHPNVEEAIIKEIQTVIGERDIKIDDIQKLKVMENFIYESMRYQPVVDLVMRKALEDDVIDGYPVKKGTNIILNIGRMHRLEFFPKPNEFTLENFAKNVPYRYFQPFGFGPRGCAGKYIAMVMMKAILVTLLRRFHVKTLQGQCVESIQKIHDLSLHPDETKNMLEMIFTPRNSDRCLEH
Nature of the assay: Binding affinity to human placental aromatase in MCF7 cells assessed as inhibition constant.

For the next assay, the system named is Ishikawa. Nature of the assay: Antiproliferative activity against human Ishikawa cells assessed as reduction in cell viability incubated for 48 hrs by MTT assay. A general note: Tetrazolium dyes change colour on reduction, which living cells bring about.
Assay [2] can be described thus: Downregulation of ERalpha expression in human MCF7 cells measured for 24 hrs by Western blot analysis. Conditions: MCF7, 24 h. For orientation: Immunoblotting shows a protein as a band on a membrane.
The subject of assay [3] is MCF7. Nature of the assay: Cytotoxicity against human MCF7 cells.
In assay [4] the test system is MCF7. As to the kind of experiment: Antiproliferative activity against human MCF-7 cells assessed as reduction in cell viability incubated for 48 hrs by MTT assay. Conditions: MCF7, 48 h.
For assay [5], the system named is MCF7. Nature of the assay: Cytotoxicity against human MCF7 cells assessed as reduction in cell viability incubated for 24 hrs by MTT assay. As to conditions: MCF7, 24 h.
The next assay relates to HEK-293T. As to the kind of experiment: Cytotoxicity against HEK293T cells. Conditions: Homo sapiens.
For assay [6], the system named is MCF7. Nature of the assay: Antiproliferative activity against human MCF7 cells assessed as reduction in cell viability by MTT assay.
In another assay the test system is MDA-MB-231. Nature of the assay: Antiproliferative activity against human MDA-MB-231 cells assessed as reduction in cell viability by MTT assay.

Usually IC50 stands for the midpoint of a concentration-inhibition curve. In the assay with MCF7 [1], `CC1=C(c2ccc(OC(=O)C(C)(C)C)cc2)[C@H](c2ccc(OCCN3CCCCC3)cc2)Oc2cc(OC(=O)C(C)(C)C)ccc21` had an IC50 of 0.00058 µM.

For orientation: Ki means a dissociation constant, usually derived from enzyme kinetics or from competition with a known ligand. Consider `C=C(C)[C@H]1Cc2c(ccc3c2O[C@@H]2COc4cc(OC)c(OC)cc4[C@@H]2C3=O)O1` [ROTENONE], for which the inhibitory constant (Ki) on Aromatase was 0.3 µM.

Compound `CN1CCN(c2ccc(-c3cc(=O)c4ccccc4o3)cc2)CC1` yielded an IC50 with MCF7 [1] of 2.72 µM.

As to `COc1cc2c(cc1C(=O)c1ccc(OCCN3CCCCC3)cc1)C=C(c1ccccc1)C(C)(C)O2`, the IC50 in the assay on Ishikawa turned out to be 17.7 µM.

In turn, `COc1ccc(C(=O)C2=C(Oc3ccc(/C=C/C(=O)O)cc3)c3ccc(O)cc3OC2)cc1` came in with an IC50 in assay [2] of 0.1 µM.

On to `O=c1c(O)c(-c2ccc(O)c(O)c2)oc2cc(O)ccc12` [FISETIN], for which the IC50 with MCF7 [3] turned out to be 8.5 µM.

Regarding `O=c1oc2cc(O)ccc2c(Oc2ccc(OCCN3CCCCC3)cc2)c1-c1ccc(F)cc1`, the IC50 in the assay on MCF7 [4] is 2.19 µM.

`CC1=C(c2ccc(O)cc2)[C@H](c2ccc(OCCN3CCCCC3)cc2)Oc2cc(O)ccc21` [ACOLBIFENE]: the IC50 in the assay with MCF7 [1] was determined as 0.00032 µM.

With `C[C@@H]1OC(Oc2cc(O)c3c(=O)c(O[C@H]4OC[C@@](O)(CO)[C@@H]4O)c(-c4ccc(O)cc4)oc3c2)[C@H](O)[C@H](O)[C@H]1O` (stereo partly specified), the IC50 with MCF7 [5] worked out at 0.048 µM.

Regarding `COc1ccc(-c2cc(=O)c3c(O)cc(OC)cc3o2)cc1` [APIGENIN DIMETHYLETHER], the Ki on Aromatase was 2.1 µM.

With `Cc1cc(OC(F)(F)F)ccc1-c1c(Oc2ccc(/C=C/C(=O)O)cc2)c2ccc(O)cc2oc1=O`, the IC50 in assay [2] came out at 0.003 µM.

Take `O=C1C[C@@H](c2ccccc2)Oc2cc(O)cc(O)c21` [PINOCEMBRIN]: the Ki on Aromatase was 10.8 µM.

Take `O=c1c(O)c(-c2ccc(O)c(O)c2)oc2cc(O)cc(O)c12` [QUERCETIN]: 1.2 µM corresponded to half-maximal inhibition in the assay with HEK-293T (IC50).

`COc1ccc(-c2c(C(=O)c3ccc(OCCN4CCCCC4)cc3)c3ccc(OC)cc3oc2=O)cc1`: the half-maximal inhibitory concentration (IC50) was found to be 5.7 µM in the assay with MCF7 [6] and 12.7 µM in the assay with MDA-MB-231.

With `CC1=C(c2cc(F)cc(F)c2)[C@H](c2ccc(/C=C/CN3CC(CF)C3)cc2)Oc2cc(O)ccc21` [BEXIRESTRANT], the IC50 with MCF7 [5] stood at 0.0003 µM.

Consider `O=C(O)/C=C/c1ccc(Cc2c(-c3ccccc3)c(=O)oc3cc(O)ccc23)cc1`, for which, in assay [2], half-maximal inhibition (IC50) required 1.18 µM.

`Cc1cc(OC(F)(F)F)ccc1-c1c(Oc2ccc(/C=C/C(=O)O)cc2)c2ccccc2oc1=O`: the IC50 in assay [2] amounted to 0.81 µM.

`COc1cc(O)c2c(=O)cc(-c3ccc(OC)c(-c4c(O)cc(O)c5c(=O)cc(-c6ccc(O)cc6)oc45)c3)oc2c1` [GINKGETIN] displayed an IC50 with MCF7 [3] of 10 µM.

Consider `CC1=C(c2cc(F)cc(F)c2)[C@@H](c2ccc(/C=C/CN3CC(CF)C3)cc2)Oc2cc(O)ccc21`, for which the IC50 with MCF7 [5] amounted to 0.0699 µM.

`COc1cc(O)c2c(c1)OC(c1ccc(O)cc1)CC2=O` (single isomer, unassigned) [SAKURANETIN]: the Ki at Aromatase worked out at 1.2 µM.
